ChEMBL document CHEMBL4828771, “Discovery and Development of a Potent, Selective, and Orally Bioavailable CHK1 Inhibitor Candidate: 5-((4-((3-Amino-3-methylbutyl)amino)-5-(trifluoromethyl)pyrimidin-2-yl)amino)picolinonitrile” (J Med Chem, 2021)
pIC50: −log10 of the molar value. Active and inactive are the calls of the source. The rule behind the calls is not given here.

Columns and labels:
[1] = biological target: T1, Serine/threonine-protein kinase Chk1 (Homo sapiens, UniProt O14757); assay: Inhibition of CHK1 (unknown origin) incubated for 1 hr in presence of ATP by HTRF assay
T1 sequence (O14757 whole entry): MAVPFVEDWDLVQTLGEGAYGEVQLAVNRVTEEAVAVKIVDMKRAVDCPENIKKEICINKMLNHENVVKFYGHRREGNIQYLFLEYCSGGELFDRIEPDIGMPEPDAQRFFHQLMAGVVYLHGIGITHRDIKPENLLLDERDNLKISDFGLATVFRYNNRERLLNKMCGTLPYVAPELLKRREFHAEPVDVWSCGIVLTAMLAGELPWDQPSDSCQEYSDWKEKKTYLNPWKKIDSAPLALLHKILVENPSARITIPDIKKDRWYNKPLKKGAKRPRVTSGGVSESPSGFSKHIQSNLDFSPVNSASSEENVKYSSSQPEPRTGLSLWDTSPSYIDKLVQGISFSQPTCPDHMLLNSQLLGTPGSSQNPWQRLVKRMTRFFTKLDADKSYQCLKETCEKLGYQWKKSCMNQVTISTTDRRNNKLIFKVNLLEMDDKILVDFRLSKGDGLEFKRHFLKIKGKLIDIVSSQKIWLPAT

MV4-11 [2] = assay: Antiproliferation activity against human MV4-11 cells assessed as reduction in cell viability incubated for 72 hrs by MTS assay; format: functional, cell-based; conditions: MV4-11, 72 h
Z-138 = assay: Antiproliferation activity against human Z138 cells assessed as reduction in cell viability incubated for 72 hrs by MTS assay; format: functional, cell-based; conditions: Z-138, 72 h
hERG (KCNH2) = hERG (KCNH2) (Homo sapiens, UniProt Q12809); assay: Inhibition of human ERG expressed in HEK293 cells at 10 uM by patch-clamp technique relative to control; format: cell-based; conditions: HEK293 cells that express hERG
[3] = Half life in ICR mouse at 20 mg/kg, po measured after 0.083 to 48 hrs by LC-MS/MS analysis; format: ADME, organism-based; conditions: in vivo, time 0.083-48 hrs
[4] = Tmax in ICR mouse at 20 mg/kg, po measured after 0.083 to 48 hrs by LC-MS/MS analysis; format: ADME, organism-based; conditions: in vivo, time 0.083-48 hrs
[5] = Cmax in ICR mouse at 20 mg/kg, po measured after 0.083 to 48 hrs by LC-MS/MS analysis; format: ADME, organism-based; parameters: route oral, time upper 48 hrs, time lower 0.083 hrs, dose 20 mg/kg; conditions: in vivo
[6] = AUCt in ICR mouse at 20 mg/kg, po measured after 0.083 to 48 hrs by LC-MS/MS analysis; format: ADME, organism-based; parameters: route oral, dose 20 mg/kg, time 0.083-48 hrs; conditions: in vivo
[7] = AUC (0 to infinity) in ICR mouse at 20 mg/kg, po measured after 0.083 to 48 hrs by LC-MS/MS analysis; format: ADME, organism-based; parameters: route oral, time upper 48 hrs, time lower 0.083 hrs, dose 20 mg/kg; conditions: in vivo
[8] = MRT (0 to infinity) in ICR mouse at 20 mg/kg, po measured after 0.083 to 48 hrs by LC-MS/MS analysis; format: ADME, organism-based; conditions: in vivo, time 0.083-48 hrs
MV4-11 [9] = assay: Antitumor activity against human MV4-11 cells xenografted in mouse assessed as inhibition of tumor growth by measuring T/C ratio at 30 mg/kg, po dosed 5 days/week for 3 weeks measured twice every week; format: functional
[10] = MRT(0 to infinity) in ICR mouse at 10 mg/kg, po measured after 0.083 to 48 hrs by LC-MS/MS analysis; format: ADME, organism-based; conditions: in vivo, time 0.083-48 hrs
[11] = AUCt in ICR mouse at 10 mg/kg, po measured after 0.083 to 48 hrs by LC-MS/MS analysis; format: ADME, organism-based; parameters: route oral, dose 10 mg/kg, time 0.083-48 hrs; conditions: in vivo
[12] = AUC(0 to infinity) in ICR mouse at 10 mg/kg, po measured after 0.083 to 48 hrs by LC-MS/MS analysis; format: ADME, organism-based; parameters: route oral, time lower 0.083 hrs, dose 10 mg/kg, time upper 48 hrs; conditions: in vivo
[13] = Half life in ICR mouse at 10 mg/kg, po measured after 0.083 to 48 hrs by LC-MS/MS analysis; format: ADME, organism-based; conditions: in vivo, time 0.083-48 hrs
[14] = Tmax in ICR mouse at 10 mg/kg, po measured after 0.083 to 48 hrs by LC-MS/MS analysis; format: ADME, organism-based; conditions: in vivo, time 0.083-48 hrs
[15] = Cmax in ICR mouse at 10 mg/kg, po measured after 0.083 to 48 hrs by LC-MS/MS analysis; format: ADME, organism-based; parameters: route oral, time upper 48 hrs, dose 10 mg/kg, time lower 0.083 hrs; conditions: in vivo
[16] = biological target: T2, Serine/threonine-protein kinase Chk1 (Homo sapiens) (UniProt O14757); assay: Inhibition of CHK1 in human HT-29 cells assessed as […] residue at 40 nM incubated for 24 hrs by Western blot analysis; format: cell-based
T2 sequence (whole entry): T1 sequence (O14757 whole entry)

[17] = biological target: T2, Serine/threonine-protein kinase Chk1 (Homo sapiens); assay: Inhibition of CHK1 in human HT-29 cells assessed as increase in phosphorylation at S345 residue at 40 nM incubated for 24 hrs by Western blot analysis; format: cell-based
HT-29 [18] = assay: Induction of gamma-H2A.X in human HT-29 cells at 40 nM incubated for 24 hrs by Western blot analysis; format: functional, cell-based
HT-29 [19] = assay: Antitumor activity against human HT-29 cells xenografted in mouse assessed as reduction in tumor growth by measuring T/C ratio at 100 mg/kg, iv dosed once a week for 22 days measured twice every week; format: functional; conditions: time 22 day
Mus musculus [20] = assay: Induction of S296 phosphorylation in tumor of mouse xenografted with human HT-29 cells at 100 mg/kg, iv dosed once a week for 22 days by Western blot analysis; format: functional, organism-based; conditions: time 22.0 day
Mus musculus [21] = assay: Induction of S345 phosphorylation in tumor of mouse xenografted with human HT-29 cells at 100 mg/kg, iv dosed once a week for 22 days by Western blot analysis; format: functional, organism-based; conditions: time 22.0 day

hERG (KCNH2), sequence (Q12809 whole entry): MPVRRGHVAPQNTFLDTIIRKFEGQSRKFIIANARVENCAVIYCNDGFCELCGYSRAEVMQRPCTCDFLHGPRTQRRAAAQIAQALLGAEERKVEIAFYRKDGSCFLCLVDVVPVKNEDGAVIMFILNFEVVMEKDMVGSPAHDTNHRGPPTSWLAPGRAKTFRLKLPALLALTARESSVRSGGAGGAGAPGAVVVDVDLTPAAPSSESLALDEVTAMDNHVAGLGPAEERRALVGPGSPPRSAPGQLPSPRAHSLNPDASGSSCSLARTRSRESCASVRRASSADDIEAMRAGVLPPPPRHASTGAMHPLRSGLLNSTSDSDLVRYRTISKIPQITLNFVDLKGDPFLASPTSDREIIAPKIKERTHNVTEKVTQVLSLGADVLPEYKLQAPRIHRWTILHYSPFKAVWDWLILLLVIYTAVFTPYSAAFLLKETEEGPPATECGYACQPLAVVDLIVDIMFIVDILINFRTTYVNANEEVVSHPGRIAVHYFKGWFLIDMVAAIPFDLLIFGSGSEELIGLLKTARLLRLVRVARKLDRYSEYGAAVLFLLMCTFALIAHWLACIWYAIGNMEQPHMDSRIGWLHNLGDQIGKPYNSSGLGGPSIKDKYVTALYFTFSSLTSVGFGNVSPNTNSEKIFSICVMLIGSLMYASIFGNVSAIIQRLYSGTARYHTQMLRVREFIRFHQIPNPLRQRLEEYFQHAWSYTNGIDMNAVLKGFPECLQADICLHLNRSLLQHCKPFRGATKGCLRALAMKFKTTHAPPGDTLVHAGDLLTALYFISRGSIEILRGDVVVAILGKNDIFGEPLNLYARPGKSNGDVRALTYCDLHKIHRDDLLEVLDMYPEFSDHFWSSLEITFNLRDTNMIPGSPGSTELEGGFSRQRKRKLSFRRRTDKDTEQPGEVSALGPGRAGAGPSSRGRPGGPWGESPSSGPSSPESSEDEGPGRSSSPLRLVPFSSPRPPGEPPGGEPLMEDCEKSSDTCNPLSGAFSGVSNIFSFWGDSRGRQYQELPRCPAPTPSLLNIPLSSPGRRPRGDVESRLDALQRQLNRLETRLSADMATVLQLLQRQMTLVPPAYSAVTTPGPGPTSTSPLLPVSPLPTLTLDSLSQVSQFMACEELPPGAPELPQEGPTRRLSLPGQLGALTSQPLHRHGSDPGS

| Compound | pIC50 [1] | pIC50 (MV4-11 [2]) | pIC50 (Z-138) | inhibition at 10 µM (hERG (KCNH2)) [%] | further results |
| --- | --- | --- | --- | --- | --- |
| N#Cc1ccc(Nc2ncc(C(F)(F)F)c(NCCCN)n2)cn1 | 7.68 | 6.85 | 6.34 | 43.4 | half-life [3]: 0.76 h; Tmax [4]: 0.5 h; Cmax [5]: 2860 ng/mL; AUC(0-t) [6]: 3300 ng·h/mL; AUC(0-inf) [7]: 4100 ng·h/mL; MRT inf [8]: 1.3 h; T/C (MV4-11 [9]): 29.94% |
| N#Cc1ccc(Nc2ncc(C(F)(F)F)c(N[C@H]3CC[C@@H](N)CC3)n2)cn1 | 7.35 | – | – | 36.8 | – |
| N#Cc1ccc(Nc2ncc(C(F)(F)F)c(NC[C@H]3CNCCO3)n2)cn1 | 7.43 | 6.40 | 5.95 | 31.3 | – |
| CNCCNc1cc(Nc2ncc(C(F)(F)F)c(NC)n2)cnc1C#N | 7.55 | 6.74 | 6.57 | 46.4 | – |
| CNc1nc(Nc2cnc(C#N)c(N[C@H]3CC[C@@H](N)CC3)c2)ncc1C(F)(F)F | 8.07 | 8.00 | 7.30 | 84.2 | – |
| CNc1nc(Nc2cnc(C#N)c(NCCN)c2)ncc1C(F)(F)F | 7.72 | 6.68 | 6.40 | 9 | – |
| N#Cc1ccc(Nc2ncc(C(F)(F)F)c(N[C@H]3CCCNC3)n2)cn1 | 7.55 | 6.57 | 6.80 | 74.6 | – |
| CNCCCNc1nc(Nc2ccc(C#N)nc2)ncc1C(F)(F)F | 7.89 | 6.62 | 6.52 | 73.3 | half-life [3]: 4.12 h; Tmax [4]: 0.5 h; Cmax [5]: 1530 ng/mL; AUC(0-t) [6]: 6600 ng·h/mL; AUC(0-inf) [7]: 6700 ng·h/mL; MRT inf [8]: 5.62 h; T/C (MV4-11 [9]): 35.36% |
| CNc1nc(Nc2cnc(C#N)c(O[C@@H]3CCCNC3)c2)ncc1-c1cnn(C(F)(F)F)c1 | 8.17 | – | – | – | half-life [3]: 0.89 h; Tmax [4]: 2 h; Cmax [5]: 93 ng/mL; AUC(0-t) [6]: 126 ng·h/mL; AUC(0-inf) [7]: 130 ng·h/mL; MRT inf [8]: 2.58 h |
| CNc1nc(Nc2cnc(C#N)c(O[C@@H]3CCCNC3)c2)ncc1C(F)(F)F | 8.12 | 6.48 | 5.86 | 91.6 | half-life [3]: 0.7 h; Tmax [4]: 1.08 h; Cmax [5]: 127 ng/mL; AUC(0-t) [6]: 166 ng·h/mL; AUC(0-inf) [7]: 168 ng·h/mL; MRT inf [8]: 1.57 h |
| CNc1nc(Nc2cnc(C#N)c(OC3CCNCC3)c2)ncc1C(F)(F)F | 7.49 | 6.62 | 6.36 | – | – |
| CNC(C)CCNc1nc(Nc2ccc(C#N)nc2)ncc1C(F)(F)F (stereo not given) | 7.79 | 6.82 | 6.46 | 35.5 | – |
| CNc1nc(Nc2cnc(C#N)c(N[C@H]3CC[C@H](N)CC3)c2)ncc1C(F)(F)F | 7.48 | 7.15 | 6.02 | 5.3 | – |
| N#Cc1ccc(Nc2ncc(C(F)(F)F)c(N[C@H]3CC[C@H](N)CC3)n2)cn1 | 7.48 | 7.30 | 6.17 | 47.9 | MRT inf [10]: 3.37 h; AUC(0-t) [11]: 1430 ng·h/mL; AUC(0-inf) [12]: 1440 ng·h/mL; half-life [13]: 2.88 h; Tmax [14]: 1.42 h; Cmax [15]: 371 ng/mL |
| CNc1nc(Nc2cnc(C#N)c(NCC3CCCCN3)c2)ncc1C(F)(F)F (stereo not given) | 7.33 | 6.80 | 6.68 | – | – |
| Nc1ccn([C@@H]2O[C@H](CO)[C@@H](O)C2(F)F)c(=O)n1 [GEMCITABINE] | – | – | – | – | Activity [16]: Active; Activity [17]: Active; Activity (HT-29 [18]): Active; T/C (HT-29 [19]): 57.7%; Activity (Mus musculus [20]): Active; Activity (Mus musculus [21]): Active |
| CS(=O)(=O)CCNCCCNc1nc(Nc2ccc(C#N)nc2)ncc1C(F)(F)F | 7.61 | 6.60 | 6.20 | 58.5 | half-life [3]: 2.38 h; Tmax [4]: 0.25 h; Cmax [5]: 1690 ng/mL; AUC(0-t) [6]: 2520 ng·h/mL; AUC(0-inf) [7]: 2710 ng·h/mL; MRT inf [8]: 2.42 h |
| N#Cc1ccc(Nc2ncc(C(F)(F)F)c(NCCCNCCO)n2)cn1 | 6.66 | – | – | 35.2 | – |
| N#Cc1ccc(Nc2ncc(C(F)(F)F)c(NC[C@@H]3CCCNC3)n2)cn1 | 7.62 | 6.52 | 5.92 | 41.1 | – |
| CNc1nc(Nc2cnc(C#N)c(N[C@@H]3CCNC3)c2)ncc1C(F)(F)F | 8.48 | 7.22 | 6.77 | 17.9 | half-life [3]: 1.4 h; Tmax [4]: 0.33 h; Cmax [5]: 1330 ng/mL; AUC(0-t) [6]: 1120 ng·h/mL; AUC(0-inf) [7]: 1150 ng·h/mL; MRT inf [8]: 1.17 h; T/C (MV4-11 [9]): 65.78% |
| CC(N)CCNc1nc(Nc2ccc(C#N)nc2)ncc1C(F)(F)F (racemic) | 7.57 | 6.41 | 5.24 | 31.6 | – |
| CNc1nc(Nc2cnc(C#N)c(N[C@@H]3CCCNC3)c2)ncc1C(F)(F)F | 7.91 | 7.30 | 6.14 | 81.1 | – |
| CNc1nc(Nc2cnc(C#N)c(NC[C@@H]3CCNC3)c2)ncc1C(F)(F)F | 7.69 | 6.85 | 6.57 | 2.4 | – |
